In the supplement of paper PMC8149375:

What was measured:
Details in all cases: treatment: drug + dasatinib (fixed dose, not stated); 5 days
769-P [1] = assay: GI50 of drug in presence of dasatinib; higher = less potent
Procedure: (§1)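 Primary HTS combination arm: 8 RCC cell lines treated with 8 doses (up to 10 uM) of each library drug plus a fixed dose of dasatinib (dose not stated) for 5 days; viability read by CellTiter-Glo and normalised to DMSO. GI50 was fitted with XLfit, AUC is the area under the dose-response curve, and minimum viability is the lowest fraction of DMSO viability across doses.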

786-O [2] = assay: as above
Procedure: as §1

A498 [3] = assay: as above
Procedure: as §1

ACHN [4] = assay: as above
Procedure: as §1

CAKI-1 [5] = assay: as above
Procedure: as §1

SN12C [6] = assay: as above
Procedure: as §1

TK-10 [7] = assay: as above
Procedure: as §1

UO-31 [8] = assay: as above
Procedure: as §1

769-P [9] = assay: minimum viability across doses, drug + dasatinib, relative to DMSO (fraction); higher = less growth inhibition
Procedure: as §1

786-O [10] = assay: as above
Procedure: as §1

A498 [11] = assay: as above
Procedure: as §1

ACHN [12] = assay: as above
Procedure: as §1

CAKI-1 [13] = assay: as above
Procedure: as §1

SN12C [14] = assay: as above
Procedure: as §1

TK-10 [15] = assay: as above
Procedure: as §1

UO-31 [16] = assay: as above
Procedure: as §1

769-P [17] = assay: AUC of dose-response viability curve, drug + dasatinib, normalised to DMSO (arbitrary (AUC of normalised viability)); higher = less growth inhibition
Procedure: as §1

786-O [18] = assay: as above
Procedure: as §1

A498 [19] = assay: as above
Procedure: as §1

ACHN [20] = assay: as above
Procedure: as §1

CAKI-1 [21] = assay: as above
Procedure: as §1

SN12C [22] = assay: as above
Procedure: as §1

TK-10 [23] = assay: as above
Procedure: as §1

UO-31 [24] = assay: as above
Procedure: as §1

Structure (SMILES) | GI50 of drug (769-P [1]) | GI50 of drug (786-O [2]) | GI50 of drug (A498 [3]) | GI50 of drug (ACHN [4]) | GI50 of drug (CAKI-1 [5]) | GI50 of drug (SN12C [6]) | GI50 of drug (TK-10 [7]) | GI50 of drug (UO-31 [8]) | minimum viability across doses (769-P [9]) | minimum viability across doses (786-O [10]) | minimum viability across doses (A498 [11]) | minimum viability across doses (ACHN [12]) | minimum viability across doses (CAKI-1 [13]) | minimum viability across doses (SN12C [14]) | minimum viability across doses (TK-10 [15]) | minimum viability across doses (UO-31 [16]) | AUC of dose-response viability curve (769-P [17]) | AUC of dose-response viability curve (786-O [18]) | AUC of dose-response viability curve (A498 [19]) | AUC of dose-response viability curve (ACHN [20]) | AUC of dose-response viability curve (CAKI-1 [21]) | AUC of dose-response viability curve (SN12C [22]) | AUC of dose-response viability curve (TK-10 [23]) | AUC of dose-response viability curve (UO-31 [24])
O=C1CCC(N2C(=O)c3ccccc3C2=O)C(=O)N1 (stereo unspecified) [Thalidomide] + Cc1nc(Nc2ncc(C(=O)Nc3c(C)cccc3Cl)s2)cc(N2CCN(CCO)CC2)n1 [dasatinib] | > 10000 nM | > 10000 nM | > 10000 nM | > 10000 nM | > 10000 nM | > 10000 nM | > 10000 nM | > 10000 nM | 0.666 | 0.556 | 0.971 | 0.555 | 0.638 | 0.679 | 0.665 | 1.03 | 2.54 | 2.49 | 3.94 | 2.17 | 2.35 | 2.52 | 2.48 | 4.13
O=C(NCc1ccccc1)c1csc(Nc2ccncn2)n1 [Thiazovivin] + Cc1nc(Nc2ncc(C(=O)Nc3c(C)cccc3Cl)s2)cc(N2CCN(CCO)CC2)n1 [dasatinib] | 2830 nM | 2390 nM | > 10000 nM | 2070 nM | 1870 nM | > 10000 nM | > 10000 nM | 1650 nM | 0.318 | 0.327 | 0.777 | 0.225 | 0.175 | 0.694 | 0.494 | 0.0123 | 2.27 | 2.04 | 3.03 | 2.12 | 2.04 | 2.56 | 2.73 | 2.79
COc1ccc2cc(-c3[nH]c(-c4ccc(S(C)=O)cc4)nc3-c3ccncc3)ccc2c1 (stereo unspecified) [Tie2 kinase inhibitor] + Cc1nc(Nc2ncc(C(=O)Nc3c(C)cccc3Cl)s2)cc(N2CCN(CCO)CC2)n1 [dasatinib] | > 10000 nM | 8920 nM | > 10000 nM | > 10000 nM | > 10000 nM | > 10000 nM | > 10000 nM | > 10000 nM | 0.595 | 0.468 | 0.97 | 0.521 | 0.657 | 0.64 | 0.68 | 1.07 | 2.36 | 2.51 | 3.88 | 2.03 | 2.41 | 2.4 | 2.69 | 4.56
COc1cc2nccc(Oc3ccc(NC(=O)Nc4cc(C)on4)c(Cl)c3)c2cc1OC [Tivozanib (AV-951)] + Cc1nc(Nc2ncc(C(=O)Nc3c(C)cccc3Cl)s2)cc(N2CCN(CCO)CC2)n1 [dasatinib] | 1570 nM | > 10000 nM | 9890 nM | 1630 nM | 743 nM | 1950 nM | 9670 nM | 4150 nM | 0.146 | 0.569 | 0.457 | 0.0982 | 0.0242 | 0.134 | 0.493 | 0.0455 | 2.1 | 2.68 | 3.13 | 1.95 | 1.75 | 2.12 | 2.55 | 3.32
CC(C)(C)c1cc(/C=C(\C#N)C(N)=S)cc(C(C)(C)C)c1O [Tyrphostin AG 879 (AG 879)] + Cc1nc(Nc2ncc(C(=O)Nc3c(C)cccc3Cl)s2)cc(N2CCN(CCO)CC2)n1 [dasatinib] | > 10000 nM | < 3 nM | > 10000 nM | > 10000 nM | 7590 nM | > 10000 nM | > 10000 nM | > 10000 nM | 0.689 | 0.458 | 1 | 0.556 | 0.45 | 0.706 | 0.653 | 1.26 | 2.55 | 1.83 | 3.69 | 2.11 | 2.38 | 2.56 | 2.39 | 5.04
Cc1cc(Nc2cc(N3CCN(C)CC3)nc(Sc3ccc(NC(=O)C4CC4)cc3)n2)n[nH]1 [VX-680 (MK-0457, Tozasertib)] + Cc1nc(Nc2ncc(C(=O)Nc3c(C)cccc3Cl)s2)cc(N2CCN(CCO)CC2)n1 [dasatinib] | 325 nM | 152 nM | 1110 nM | 145 nM | 95.1 nM | 511 nM | > 10000 nM | 3330 nM | 0.269 | 0.308 | 0.183 | 0.139 | 0.077 | 0.0667 | 0.536 | 0.0311 | 1.79 | 1.88 | 2.4 | 1.68 | 1.6 | 1.97 | 2.73 | 2.75
COc1cc2c(Nc3ccc(Br)cc3F)ncnc2cc1OCC1CCN(C)CC1 [Vandetanib (Zactima)] + Cc1nc(Nc2ncc(C(=O)Nc3c(C)cccc3Cl)s2)cc(N2CCN(CCO)CC2)n1 [dasatinib] | 1130 nM | 5420 nM | 7710 nM | 305 nM | 2210 nM | > 10000 nM | 1490 nM | 1880 nM | 0.157 | 0.332 | 0.366 | 0.0849 | 0.0882 | 0.456 | 0.161 | 0.0159 | 2.01 | 2.55 | 3.11 | 1.82 | 2.07 | 2.48 | 2.46 | 2.64
CCCS(=O)(=O)Nc1ccc(F)c(C(=O)c2c[nH]c3ncc(-c4ccc(Cl)cc4)cc23)c1F [Vemurafenib (PLX4032)] + Cc1nc(Nc2ncc(C(=O)Nc3c(C)cccc3Cl)s2)cc(N2CCN(CCO)CC2)n1 [dasatinib] | > 10000 nM | 3840 nM | > 10000 nM | 5760 nM | > 10000 nM | > 10000 nM | 9220 nM | > 10000 nM | 0.618 | 0.326 | 0.838 | 0.403 | 0.57 | 0.719 | 0.6 | 0.853 | 2 | 2.11 | 3.37 | 2.05 | 2.39 | 2.62 | 2.4 | 3.4
c1cncc(CN2CCC(n3ncc4c(N5CCOCC5)nc(-c5ccc6[nH]ccc6c5)nc43)CC2)c1 [WAY-600] + Cc1nc(Nc2ncc(C(=O)Nc3c(C)cccc3Cl)s2)cc(N2CCN(CCO)CC2)n1 [dasatinib] | 688 nM | 524 nM | 4490 nM | 91.2 nM | 306 nM | 523 nM | 433 nM | 1100 nM | 0.0156 | 0.00323 | 0.0551 | 0.0438 | 0.0191 | 0.119 | 0.045 | 0.0101 | 1.93 | 1.56 | 3.1 | 1.39 | 1.63 | 1.85 | 1.83 | 2.62
COc1cc2ncnc(Nc3ccc(O)c(Br)c3)c2cc1OC [WHI-P154] + Cc1nc(Nc2ncc(C(=O)Nc3c(C)cccc3Cl)s2)cc(N2CCN(CCO)CC2)n1 [dasatinib] | 2580 nM | > 10000 nM | > 10000 nM | 33.7 nM | 2980 nM | > 10000 nM | 1920 nM | > 10000 nM | 0.348 | 0.547 | 0.937 | 0.218 | 0.211 | 0.603 | 0.422 | 1.22 | 2.22 | 2.26 | 3.93 | 1.42 | 2.26 | 2.51 | 2.16 | 5.45
C[C@H](NC(=O)/C(C#N)=C/c1cccc(Br)n1)c1ccccc1 [WP1066] + Cc1nc(Nc2ncc(C(=O)Nc3c(C)cccc3Cl)s2)cc(N2CCN(CCO)CC2)n1 [dasatinib] | 3930 nM | 4310 nM | > 10000 nM | 8.56 nM | 3970 nM | > 10000 nM | > 10000 nM | 7910 nM | 0.0555 | 0.0254 | 0.638 | 0.0689 | 0.285 | 0.385 | 0.713 | 0.00793 | 2.49 | 2.35 | 3.03 | 1.48 | 2.28 | 2.36 | 2.77 | 4.08
CCC[C@H](NC(=O)/C(C#N)=C/c1cccc(Br)n1)c1ccccc1 [WP1130] + Cc1nc(Nc2ncc(C(=O)Nc3c(C)cccc3Cl)s2)cc(N2CCN(CCO)CC2)n1 [dasatinib] | 3100 nM | 279 nM | 4100 nM | 4370 nM | 2190 nM | 3930 nM | 4750 nM | 4240 nM | 0.0169 | 0.00681 | 0.02 | 0.00233 | 0.0305 | 0.00838 | 0.191 | 0.0123 | 2.25 | 1.79 | 2.69 | 1.95 | 2.12 | 2.37 | 2.43 | 3.53
COC(=O)Nc1ccc(-c2nc(N3CCOCC3)c3cnn(C4CCN(C(=O)OC)CC4)c3n2)cc1 [WYE-354] + Cc1nc(Nc2ncc(C(=O)Nc3c(C)cccc3Cl)s2)cc(N2CCN(CCO)CC2)n1 [dasatinib] | 457 nM | 381 nM | 1980 nM | 74.7 nM | 345 nM | 800 nM | 329 nM | 894 nM | 0.122 | 0.307 | 0.262 | 0.0892 | 0.0632 | 0.215 | 0.208 | 0.019 | 1.84 | 1.76 | 2.63 | 1.33 | 1.71 | 2.08 | 1.83 | 2.63
COC(=O)Nc1ccc(-c2nc(N3CCOCC3)c3cnn(C4CCN(Cc5cccnc5)CC4)c3n2)cc1 [WYE-687] + Cc1nc(Nc2ncc(C(=O)Nc3c(C)cccc3Cl)s2)cc(N2CCN(CCO)CC2)n1 [dasatinib] | 481 nM | 618 nM | 2280 nM | 83.3 nM | 153 nM | 414 nM | 231 nM | 572 nM | 0.074 | 0.212 | 0.251 | 0.0388 | 0.0365 | 0.13 | 0.058 | 0.00676 | 1.81 | 2.02 | 2.89 | 1.38 | 1.51 | 1.78 | 1.79 | 2.8
